# Reference: US20190365698A1, “Use of Antineoplastic Agents to Stimulate the Immune System for Treatment of Cancer” (CRITITECH, INC., priority 2018, published 2019)
# Several values for one entry are separate records, joined by “and”; a condition that tells them apart may be missing. Identical values can stand only once. Marks after values point to notes of the source that are not given here.
# Experiments:
# [1] = tested on: UM-UC-3 bladder cancer cell line; assay: Human bladder cancer (UM-UC-3) mouse xenograft study: tumor volume; assay type: in vivo, Hsd:Athymic Nude-Foxnlnu nude mice
# Procedure: Tumor volume was determined with calipers. […] Animals were weighed 2×/week.
# At day 18 after tumor implant, when average tumor size was between 50-325 mm^3, animals were sorted into five groups with equal average tumor sizes and were treated as shown in Table 25 below.
# The second treatments (2nd cycle) occurred 7 days following first treatment (1st cycle) and third treatments (3rd cycle) occurred 14 days following the first treatment. The docetaxel solution IV was administered via the tail vein.
# Vehicle (Control): Diluted 1 ml of the 1% Polysorbate 80/8% Ethanol in normal saline (0.9% Sodium Chloride for Injection) reconstitution solution with 1.5 mL of normal saline (0.9% Sodium Chloride for Injection, USP). […] Vigorously hand shook the vial with inversions for 1 minute. […] Allowed the suspension to sit undisturbed for at least 5 minutes to reduce entrapped air and foam. […] Vortexed to mix.
# 786-O cell line [2] = assay: Rat xenograft model of human renal cell adenocarcinoma: tumor volume; assay type: in vivo, Sprague-Dawley Rag2; Il2rg null (SRG) rat; settings: IV docetaxel, 3 weekly cycles
# 786-O cell line [3] = assay: Renal cell adenocarcinoma xenograft: histology and immunohistochemistry (viable carcinoma size, necrosis, lymphohistiocytic infiltrate); assay type: in vivo, Sprague-Dawley Rag2; Il2rg null (SRG) rat
# Excerpt: Microscopic Examination: Tissues fixed with 10% NBF were embedded in paraffin. Each tumor was cut into 2-3 pieces and embedded and sectioned together.
# [4] = tested on: UM-UC-3 bladder cancer cell line; assay: Bladder cancer xenograft study: histology and immunohistochemistry (viable carcinoma size, necrosis, macrophage infiltrate, TLS, necropsy volume)
# Procedure: Tumors were implanted with 1×10^7 cells (1004, volume) into right flank (PBS 1:1 with matrigel: BD356234). Tumor volume was determined with calipers. Formula: V=(r length*r width*r height)*π*4/3. Animals were weighed 2×/week. Tumor volumes were determined every 3 to 4 days following tumor implant (total of ˜20 measurements) and on day of euthanasia. Photo images of tumors were obtained at 2, 3 and 4 weeks post implantation and on day of euthanasia. Animals were euthanized once the tumor reached a size of 3,000 mm^3 or up to the point of significant tumor ulceration. At the time of euthanasia, tumors were isolated and halved. […] The second half of the tumor was fixed in formalin. Two H&E stained slides/tumor were prepared (up to 4 tumor/group were processed).
# Tumor tissue was fixed before H&E and IHC staining. Bladder tissue sections were deparaffinized and processed by standard H&E and IHC staining. At least four tumors per treatment group were processed.
# [5] = Solubility of the active in the receptor fluid; assay type: physicochemical; settings: not told, aqueous with cosolvent or surfactant or cyclodextrin; 96 wt % PBS at pH 7.4 and 4 wt % hydroxyl propyl beta cyclodextrin
# Procedure: The receptor fluid was degassed by filtering the receptor fluid through a ZapCap CR 0.2 μm membrane while pulling vacuum. The filtered receptor fluid was stirred for an additional 20 minutes while maintaining vacuum to ensure complete degassing.
# [6] = IV Docetaxel 3 cycles, 2 animals
compound,measurement,setting,value
"CC(=O)O[C@@]12CO[C@@H]1C[C@H](O)[C@@]1(C)C(=O)[C@H](O)C3=C(C)[C@@H](OC(=O)[C@H](O)[C@@H](NC(=O)OC(C)(C)C)c4ccccc4)C[C@@](O)([C@@H](OC(=O)c4ccccc4)[C@H]21)C3(C)C [Docetaxel, docetaxel]",Tumor volume over time,"[1]; Docetaxel IV 30 mg/kg, 3 weekly cycles, 61 days","decreased initially for dosages of nDoce IT 1 cycle and Docetaxel IV 3 cycles, but subsequently increased"
same,Effectiveness in relation to initial tumor size,[1]; Docetaxel IV 3 cycles,"somewhat effective at treating small tumors, but not very effective in treating large tumors"
same,tumor growth vs vehicle control,786-O cell line [2],partial tumor growth inhibition compared to vehicle control
same,Histology overview (H&E) vs vehicle control,"786-O cell line [3]; Docetaxel (IV) 3 cycles, FIG. 93",no difference
same,morphologic and immunohistochemical appearance,"786-O cell line [3]; IV docetaxel, two cases",identical morphologic and immunohistochemical appearance to that seen in the control and IT vehicle groups
same,Size of residual viable carcinoma on slide: number of animals with >10 mm,"786-O cell line [3]; IV docetaxel, 2 animals",2
same,"residual viable carcinoma nodules, size",786-O cell line [3]; both IV docetaxel animals,greater than 10 mm
same,"Histological overview, general observations (H&E)",[4]; Docetaxel Solution IV 3 cycles,many viable appearing tumor masses with some macrophage and occasional lymphocytic response along with some tumor necrosis
same,"Immunohistochemistry overview, F4/80 stain","[4]; FIG. 87, IV Docetaxel 3 cycles",Very little tumor cell destruction and few scattered mononuclear immune cells among vast number of viable tumor cells
same,# containing at least one TLS,[4]; [6],0
same,Maximum size of viable invasive carcinoma on the slide >10 mm (number of animals),[4]; [6],2*
same,Percentage of tumor showing necrosis: number of animals with 11-50%,[4]; [6],1
same,Percentage of tumor showing necrosis: number of animals with 50-90%,[4]; [6],1
same,Macrophage infiltrate density Mild (number of animals),"[4]; IV Docetaxel 3 cycles, H&E and CD68",2
same,Maximum tumor size on slide,"[4]; IV Docetaxel 3 cycles, individual animals B1, B3",15 mm and 11 mm
same,TLSs,[4]; IV docetaxel 3 cycles,There were no TLSs present
same,"tumor mass maximum dimension on the slide, individual cases",[4]; IV docetaxel 3 cycles,11 mm and 15 mm
same,"geographic tumor cell necrosis, share of tumor area, individual cases","[4]; IV docetaxel 3 cycles, cases B1 and B3",11-50% and 50-90%
CC(=O)O[C@@]12CO[C@@H]1C[C@H](O)[C@@]1(C)C(=O)[C@H](O)C3=C(C)[C@@H](OC(=O)[C@H](O)[C@@H](NC(=O)OC(C)(C)C)c4ccccc4)C[C@@](O)([C@@H](OC(=O)c4ccccc4)[C@H]21)C3(C)C [Doce],Percentage of tissue showing necrosis: number of animals with 5-50%,"786-O cell line [3]; IV Doce, 2 animals",2
same,Lymphohistiocytic infiltrate density: number of animals graded Mild,"786-O cell line [3]; IV Doce, 2 animals, H/E and CD11b staining",2
CC(=O)O[C@H]1C(=O)[C@@]2(C)[C@H]([C@H](OC(=O)c3ccccc3)[C@]3(O)C[C@H](OC(=O)[C@H](O)[C@@H](NC(=O)c4ccccc4)c4ccccc4)C(C)=C1C3(C)C)[C@]1(OC(C)=O)CO[C@@H]1C[C@@H]2O [paclitaxel],solubility,[5],~0.4 µg/mL
